Experiment in all cases: inhibition of tumour cell growth, NCI panel, 48 h
The subject of test [1] is HOP-18.
The test system of test [2] is KM-20L2.
Test [3] deals with DMS-114.
Test [4] concerns SNB-78.
The test system of test [5] is DMS-273.
The subject of test [6] is LXFL 529.
The test system of test [7] is XF498.
Test [8] relates to DLD-1.
Test [9] deals with RXF 631.

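How tested: cells in 96-well plates exposed to compound for 48 hours at five concentrations. Abbreviation: GI50, concentration required for 50% inhibition of growth.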 Activity calls are given as the source filed them. Cut-off read from the data, not from the text of the source: active = GI50 up to about 1.1 µM and inactive = higher. Some results are limits rather than exact numbers.

Take `CCOc1ccc(C(CN2CCOCC2)C(C)=O)cc1OC` (centres undefined): the GI50 in test [1] was 16.2 µM (inactive); in test [2], 18.8 µM (inactive); in test [3] it was 15.7 µM (inactive); in [4] it was 20.7 µM (inactive); in test [5], 11.3 µM (inactive); in test [6], 4.46 µM (inactive). Moreover, the values for the GI50 in test [7] and in test [8] were 25.3 µM (inactive) and 10.6 µM (inactive), respectively.
Regarding `CCCCCCC(O)CC[C@H]1CCC[C@@H](C)N1` (some centres undefined), the GI50 was > 100 µM (inactive) in test [1]; > 10 µM (inactive) in [2]; > 31.6 µM (inactive) in test [3]; > 100 µM (inactive) in [4]; > 100 µM (inactive) in test [5]; > 100 µM (inactive) in test [6]. The GI50 in test [8] was > 100 µM (inactive).
Regarding `Cc1cccc(NC(=O)c2cc3cc(/N=N/c4ccccc4Cl)ccc3oc2=O)c1`, the GI50 in [1] was 72.9 µM (inactive); in test [2], > 100 µM (inactive); in test [3], 22.7 µM (inactive); in [4], 59.7 µM (inactive); in test [9] it was 25.1 µM (inactive); in [5] it was 26.9 µM (inactive). The results for the GI50 in test [6], in test [7] and in test [8] were 27.2 µM (inactive), 24.2 µM (inactive) and 26.4 µM (inactive), respectively.
As to `O=S1(=O)OCCOS(=O)(=O)C1Cc1ccccc1`, the GI50 in test [1] was 23.5 µM (inactive); in test [2] it was 43 µM (inactive); in test [3], 38.2 µM (inactive); in test [4] it was > 100 µM (inactive); in test [5] it was 45.4 µM (inactive); in test [7], 19.2 µM (inactive). Moreover, the GI50 in test [8] was 43 µM (inactive).
Take `CCOP(=O)(OCC)C1C(=O)O[C@H]2CCCC[C@@H]12` (some centres undefined): the GI50 in test [1] is 40.6 µM (inactive); in test [2] it was > 100 µM (inactive); in [3] it was > 100 µM (inactive); in [4], > 100 µM (inactive); in [5], > 100 µM (inactive); in test [6], > 100 µM (inactive). In addition, the GI50 in test [7] and in test [8] was > 100 µM (inactive) each time.
Take `CN1CCCc2nc3ccccc3n2C1`: the GI50 in test [1], in [2], in [3], in test [4], in test [5] and in test [6] was > 100 µM (inactive) each time. In addition, the GI50 in test [7] and in test [8] was > 100 µM (inactive) in each case.
In the case of `COc1ccc(OC)c(NC(=O)C(=O)C(C(C)=O)c2nc3ccc(Cl)cc3nc2O)c1` (centres undefined), the GI50 was 45.2 µM (inactive) in test [1]; > 50 µM (inactive) in [2]; > 50 µM (inactive) in test [3]; > 50 µM (inactive) in test [4]; > 50 µM (inactive) in test [9]; > 50 µM (inactive) in test [5]. The GI50 in [6], in [7] and in [8] was > 50 µM (inactive) in each case.
For the compound `Cn1cc(NC(=O)c2cc(NC(=O)CCCCCCCCCCC(=O)Nc3cc(C(=O)Nc4cc(C(=O)NCCC(=N)N)n(C)c4)n(C)c3)cn2C)cc1C(=O)NCCC(=N)N`, the GI50 in [1] was 15.2 µM (inactive); in test [2] it was 27 µM (inactive); in test [4], 46.7 µM (inactive); in [5], 28.2 µM (inactive); in [6] it was 16.9 µM (inactive); in [7], > 100 µM (inactive). Further, the GI50 in [8] was 27.9 µM (inactive).
`CCOc1ccccc1N1C(=O)C(=O)C(c2nc3ccccc3s2)C(=O)C1=O`: the GI50 in test [1] was 8.22 µM (inactive); in [2], > 100 µM (inactive); in test [3] it was > 100 µM (inactive); in test [4] it was > 100 µM (inactive); in [5], > 100 µM (inactive); in [6], 35.5 µM (inactive). The GI50 in [7] and in test [8] was > 100 µM (inactive) in each case.
Regarding `N#C/C(=C\c1ccccc1Br)C(=O)c1ccccc1`, the GI50 in test [2] is > 87.3 µM (inactive); in test [3] it was 97.1 µM (inactive); in [4], 6.67 µM (inactive); in [9], > 100 µM (inactive); in [5], 26.8 µM (inactive); in [6], 12.3 µM (inactive). The GI50 in [7] was > 50.2 µM (inactive).
With `CC1=CC(N2C(=O)C(C)=CC2O)NC1=O` (centres undefined), the GI50 in test [1] is < 0.01 µM (active); in [2], > 100 µM (inactive); in test [4], > 100 µM (inactive); in test [6], > 100 µM (inactive); in [8] it was > 100 µM (inactive).
On to `Cc1cc(N(CCC#N)CCC#N)ccc1/C=C1/CN(N2C(=O)/C(=C/c3ccc(N(CCC#N)CCC#N)cc3C)N=C2c2ccccc2)C(c2ccccc2)=N1`, for which the GI50 is > 100 µM (inactive) in [1]; > 100 µM (inactive) in test [2]; > 100 µM (inactive) in [3]; 32.1 µM (inactive) in test [4]; > 100 µM (inactive) in test [5]; 63.5 µM (inactive) in test [6]. The GI50 was 36 µM (inactive) in test [7] and > 100 µM (inactive) in test [8].
As for `COC(=O)C1CCc2nnc(-c3ccccc3)n21` (centres undefined), the GI50 is > 100 µM (inactive) in test [2]; > 100 µM (inactive) in test [3]; > 100 µM (inactive) in [4]; > 10 µM (inactive) in test [5]; > 100 µM (inactive) in [6]; > 100 µM (inactive) in test [7]. Besides, in test [8], the GI50 was > 100 µM (inactive).
On to `COC(=O)C(=O)C(C(C)=O)C(=O)NCc1ccc(OC)c(OC)c1` (centres undefined), for which the GI50 in test [1], in test [2], in [3], in test [4], in [9] and in [5] was > 100 µM (inactive) in each case. Moreover, the GI50 in [6], in [7] and in [8] was > 100 µM (inactive) each time.
Turning to `CCC(=O)C(C)C(=O)C(=O)C(=O)OC` (centres undefined), the GI50 is > 100 µM (inactive) in test [1]; > 100 µM (inactive) in test [2]; > 82.8 µM (inactive) in test [3]; > 100 µM (inactive) in test [4]; > 100 µM (inactive) in test [9]; > 100 µM (inactive) in test [5]. The GI50 in [6], in test [7] and in test [8] was > 100 µM (inactive) throughout.
In the case of `CCCOc1ccc(/C(Cl)=C(\C=O)c2ccc(OC)c(OC)c2)cc1OCCC`, the GI50 in [1] was > 100 µM (inactive); in [2] it was 89.7 µM (inactive); in [3] it was 3.07 µM (inactive); in [4], 6.07 µM (inactive); in test [5] it was 3.72 µM (inactive); in [6], 5.74 µM (inactive). Also, the results for the GI50 in test [7] and in test [8] were 6.93 µM (inactive) and 5.71 µM (inactive), respectively.
As for `COC1C(OC(=O)/C=C/C=C/C=C/C=C/C(=O)O)CCC2(CO2)C1C1(C)OC1CC=C(C)C` (centres undefined), the GI50 in test [1] is 23.4 µM (inactive); in test [2], 32.1 µM (inactive); in test [3], 19.9 µM (inactive); in test [4], 51.8 µM (inactive); in [5], 32.2 µM (inactive); in test [7] it was 30.8 µM (inactive). Besides, in test [8], the GI50 was 26.7 µM (inactive).
Consider `COC(=O)CCSC(=O)Nc1ccc(/N=N/c2ccccc2)cc1`, for which the GI50 in test [1] was > 100 µM (inactive); in [2] it was 22.7 µM (inactive); in test [3], 53.7 µM (inactive); in test [4] it was > 100 µM (inactive); in test [9] it was 67.3 µM (inactive); in test [5], 62.7 µM (inactive). The figures for the GI50 in test [6], in [7] and in test [8] were 36.6 µM (inactive), 37.5 µM (inactive) and 52.5 µM (inactive), respectively.
Take `Brc1ccc2ns[s+]c2c1`: the GI50 is > 47 µM (inactive) in [1]; 0.933 µM (active) in test [2]; 3.14 µM (inactive) in test [3]; > 31.6 µM (inactive) in test [4]; 5.06 µM (inactive) in test [9]; 1.95 µM (inactive) in test [5]. Besides, the GI50 in [6] was 0.404 µM (active); in test [7], > 100 µM (inactive).
For `CC1(C)OC2C(=O)OC(COCc3ccccc3)C2O1` (centres undefined), the GI50 in [1], in test [2], in test [4], in [9], in [5] and in test [6] was > 100 µM (inactive) each time. The GI50 in test [8] is > 100 µM (inactive).
With `CN/N=C(\C(=O)Nc1ccc(C(F)(F)F)cc1[N+](=O)[O-])C(c1cnc2ccc([N+](=O)[O-])cc2n1)[N+](=O)[O-]` (centres undefined), the GI50 in [3] was 10.4 µM (inactive); in test [4], 61.7 µM (inactive); in test [6], 21.8 µM (inactive); in test [8], > 100 µM (inactive).
For the compound `CC1=C(N2CC2)C(=O)C(C)=C(N2CC2)C1=O`, the GI50 in [1] is 0.451 µM (active); in test [2], 0.178 µM (active); in test [3], 0.129 µM (active); in [4] it was 0.836 µM (active); in test [5], 0.0692 µM (active); in [6] it was 0.2 µM (active). Moreover, the figures for the GI50 in test [7] and in test [8] were 0.132 µM (active) and 0.21 µM (active), respectively.
`Cc1cc(CC(=O)NCCO)n(CCO)c(=O)c1`: the GI50 in [1], in [3], in [4], in test [9], in test [5] and in [6] was > 100 µM (inactive) in each case. For the same compound, the GI50 in test [7] and in [8] was > 100 µM (inactive) in each case.
As for `Cn1c(=O)nc2n(-c3ccc(F)c(F)c3)c3ccccc3nc-2c1=O`, the GI50 in test [1] is 27.5 µM (inactive); in test [2] it was 4.86 µM (inactive); in test [3], 4.33 µM (inactive); in test [4], 19.3 µM (inactive); in test [9] it was 16.4 µM (inactive); in test [5], 12.1 µM (inactive). The GI50 in [6] was 21.3 µM (inactive); in test [7], 21.7 µM (inactive); in test [8], 16 µM (inactive).

Values taken from ChEMBL document CHEMBL1201862, “PubChem BioAssay data set” (2004).
